Assay results as given in US8124637B2, “Anthra [1, 2-d]imidazole-6,11-dione derivatives, preparation method and application thereof” (National Defense Medical Center, priority 2010, dated 2012).
“Also recorded” adds a separate entry of the source.

What was measured:
[1] = target: T1, telomerase (total cell lysates of lung cancer cell line H1299) (Homo sapiens, UniProt O14746); assay: Telomere repeat amplification protocol (TRAP) assay; type: biochemical; settings: gel; for inhibition effect/activity of telomerase (TRAP): preliminary screening at 10 μM
T1 construct: As a source of telomerase, the total cell lysates derived from lung cancer cell line H1299 cells were used; endogenous in cells; host or cells: H1299 lung cancer cells (total cell lysate)
Experimental: Telomerase activity was detected by a modified version of the general TRAP protocol. Telomerase products were resolved by 10% polyacrylamide gel electrophoresis and visualized by staining with SYBER Green. As a source of telomerase, the total cell lysates derived from lung cancer cell line H1299 cells were used. Protein concentration of the lysates was assayed using Bio-Rad protein assay kit using BSA standards.
In the FIGS. 3A, 3B and FIG. 4, a positive control group (P) used water that had been sterilized three times in the assay; while a negative control group (N) used RNase A (CLONTECH) (5 μL, 0.1 mg/mL) in the assay.
In the positive control group (P), due to the absence of inhibitor, the telomerase could extend the telomere, such that some longer telomere fragments could be observed; while there was not observed in the negative control group (N). In the result of TRAP assay (FIG. 3A to 3B), compounds with a concentration of 10 μM was used as the preliminary screening. In the gel, standard compound A was 1,2-diaminoanthraquinone, D was doxorubicin, and M was mitoxantrone.

[2] = system: hTERT promoter (PhTERT) expression; assay: SEAP assay (PhTERT-SEAP reporter, H1299); type: cell-based, human; settings: Homo sapiens, NCI-H1299, PhTERT-SEAP (H1299); for activity at 1 µM: read-out: Relative SEAP activity (%); for activity at 10 µM / activity at 100 µM: read-out: Relative SEAP activity (%) (converted)
Experimental: H1299 were grown in RPMI 1640 media supplemented with 10% fetal bovine serum, 100 units/mL penicillin and […] streptomycin in a humidified atmosphere with 5% CO2 at 37° C. Culture media were changed every three days. To establish stable cell lines that the expression of hTERT could be monitored by a reporter system, a about 3.3 kbp DNA fragment ranging from −3338 to +1 bp of the hTERT gene (hTERT promoter, PhTERT) was subcloned upstream to a secreted alkaline phosphatase gene (SEAP) and transfected into H1299 bp electroporation. The stable clones were selected using G418. The stable clones derived from H1299 were cultured using conditions that are similar to their parental cells.
Secreted alkaline phosphatase was used as the reporter system to monitor the transcriptional activity of hTERT. Here, about 10^4 cells each were grown in 96-well plates and incubated at 37° C. for 24 hours and changed with fresh media. Varying amounts of drugs were added and cells were incubated for another 24 hours. Culture media were collected and heated at 65° C. for 10 min to inactivate heat-labile phosphatases. An equal amount of SEAP buffer (2 M diethanolamine, 1 mM MgCl2, and 20 mM L-homoarginine) was added to the media and p-nitrophenyl phosphate was added to a final concentration of 12 mM. Absorptions at 405 nm were taken, and the rate of absorption increase is determined (the increasing rate of absorbance at 405 nm was used to represent the activity of SEAP).

[3] = MTT assay (relative cell survival), H1299; settings: human, H1299 non-small cell lung cancer cells (PhTERT-SEAP), Relative MTT viability (%)
H1299 cells = assay: MTT assay (relative cell survival), H1299; settings: PhTERT-SEAP (H1299), 100 μM

T1 sequence (O14746 whole entry): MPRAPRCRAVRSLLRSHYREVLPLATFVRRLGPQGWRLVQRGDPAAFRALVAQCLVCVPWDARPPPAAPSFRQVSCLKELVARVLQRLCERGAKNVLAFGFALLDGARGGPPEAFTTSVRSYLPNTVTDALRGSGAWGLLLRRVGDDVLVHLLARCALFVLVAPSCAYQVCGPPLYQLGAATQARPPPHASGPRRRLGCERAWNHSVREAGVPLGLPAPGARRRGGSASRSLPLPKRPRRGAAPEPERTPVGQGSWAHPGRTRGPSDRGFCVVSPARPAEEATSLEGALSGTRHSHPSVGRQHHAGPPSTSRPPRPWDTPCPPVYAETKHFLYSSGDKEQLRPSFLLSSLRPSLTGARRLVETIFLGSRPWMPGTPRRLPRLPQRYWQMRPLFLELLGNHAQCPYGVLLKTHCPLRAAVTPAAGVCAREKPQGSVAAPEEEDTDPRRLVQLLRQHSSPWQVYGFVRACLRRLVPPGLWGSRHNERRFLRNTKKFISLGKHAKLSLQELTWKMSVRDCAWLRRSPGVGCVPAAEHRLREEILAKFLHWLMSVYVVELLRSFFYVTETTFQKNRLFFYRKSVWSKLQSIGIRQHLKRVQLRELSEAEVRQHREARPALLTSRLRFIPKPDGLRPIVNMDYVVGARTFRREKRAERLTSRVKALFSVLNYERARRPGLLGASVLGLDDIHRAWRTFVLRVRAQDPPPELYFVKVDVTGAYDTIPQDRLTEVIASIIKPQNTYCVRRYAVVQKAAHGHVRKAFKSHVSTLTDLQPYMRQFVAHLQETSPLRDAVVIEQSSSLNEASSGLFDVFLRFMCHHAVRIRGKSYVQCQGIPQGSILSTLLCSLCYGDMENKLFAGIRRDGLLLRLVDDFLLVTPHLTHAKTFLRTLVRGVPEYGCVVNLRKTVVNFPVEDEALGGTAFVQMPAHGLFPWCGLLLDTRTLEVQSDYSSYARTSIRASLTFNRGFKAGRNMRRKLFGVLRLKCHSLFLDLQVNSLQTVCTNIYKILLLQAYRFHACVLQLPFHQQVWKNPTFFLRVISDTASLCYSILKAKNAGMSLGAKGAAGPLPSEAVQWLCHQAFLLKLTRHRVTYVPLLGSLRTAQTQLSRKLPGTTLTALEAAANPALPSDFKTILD
T1 sequence (O60832 whole entry partner): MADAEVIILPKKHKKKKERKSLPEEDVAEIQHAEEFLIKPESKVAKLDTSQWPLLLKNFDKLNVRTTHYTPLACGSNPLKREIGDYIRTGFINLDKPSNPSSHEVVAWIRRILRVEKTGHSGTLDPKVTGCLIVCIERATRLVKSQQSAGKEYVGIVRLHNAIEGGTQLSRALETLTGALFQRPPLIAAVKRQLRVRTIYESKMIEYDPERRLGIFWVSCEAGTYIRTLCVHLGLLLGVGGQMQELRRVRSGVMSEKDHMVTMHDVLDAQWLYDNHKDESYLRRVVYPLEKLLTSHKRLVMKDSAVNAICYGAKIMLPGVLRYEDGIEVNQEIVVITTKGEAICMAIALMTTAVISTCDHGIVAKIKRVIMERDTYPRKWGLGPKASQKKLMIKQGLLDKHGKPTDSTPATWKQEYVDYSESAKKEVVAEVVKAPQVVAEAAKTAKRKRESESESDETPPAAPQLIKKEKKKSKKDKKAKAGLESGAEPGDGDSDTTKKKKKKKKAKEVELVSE
T1 sequence (Q9NX24 whole entry partner): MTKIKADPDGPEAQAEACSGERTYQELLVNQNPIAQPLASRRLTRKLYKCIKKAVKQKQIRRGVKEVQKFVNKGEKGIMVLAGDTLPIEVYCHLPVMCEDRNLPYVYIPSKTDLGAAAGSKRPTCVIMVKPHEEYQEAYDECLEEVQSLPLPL
T1 sequence (Q9NPE3 whole entry partner): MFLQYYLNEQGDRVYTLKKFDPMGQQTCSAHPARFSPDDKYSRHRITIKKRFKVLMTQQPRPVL
T1 sequence (Q9NY12 whole entry partner): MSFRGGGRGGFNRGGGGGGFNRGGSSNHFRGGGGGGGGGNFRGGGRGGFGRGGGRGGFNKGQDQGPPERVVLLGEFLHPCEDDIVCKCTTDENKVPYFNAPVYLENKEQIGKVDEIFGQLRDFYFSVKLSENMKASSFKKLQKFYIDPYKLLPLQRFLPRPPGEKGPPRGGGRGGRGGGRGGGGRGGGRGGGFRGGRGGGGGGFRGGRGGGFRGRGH

SMILES | telomerase inhibiting effect (TRAP) ([1]; 1 μM) | inhibition effect/activity of telomerase (TRAP) [1] | activity at 1 µM [2] [%] | activity at 10 µM [2] [%] | activity at 100 µM [2] [%] | viability at 72 h, 1 µM [3] [%] | viability at 72 h, 10 µM [3] [%] | viability at 72 h, 100 µM [3] [%] | Relative MTT viability (%) (H1299 cells)
O=C1c2ccccc2C(=O)c2c1ccc1nc(CN3CCC(CCCC4CCNCC4)CC3)[nH]c21 [CL20, 2-((4-(3-(piperidin-4-yl)propyl)piperidin-1-yl)methyl)-1H-anthra[1,2-d]imidazole-6,11-dione] | telomerase inhibiting effect could be observed still | more significant inhibition effect/activity of telomerase; also recorded: highest inhibition effect/activity of telomerase | 96 ± 5.48 | 7.52 | 3.08 | 97 ± 4.74 | < 50 |  | 
O=C1c2ccccc2C(=O)c2c1ccc1nc(CCCl)[nH]c21 [CL35, 2-(2-chloroethyl)-1H-anthra[1,2-d]imidazole-6,11-dione] |  |  | 94.7 ± 9.12 | 82.8 | 7.62 | 91.1 ± 5.56 | 85.6 | > 40 | 40.27 ± 1.32
CC1CCN(Cc2nc3ccc4c(c3[nH]2)C(=O)c2ccccc2C4=O)CC1 [CL17, 2-((4-methylpiperidin-1-yl)methyl)-1H-anthra[1,2-d]imidazole-6,11-dione] |  |  | 102 ± 4.81 | 97.3 | 25.6 | 114 ± 3.31 | 110 | > 40 | 32.26 ± 2.68
CCN1CCN(Cc2nc3ccc4c(c3[nH]2)C(=O)c2ccccc2C4=O)CC1 [CL25, 2-((4-ethylpiperazin-1-yl)methyl)-1H-anthra[1,2-d]imidazole-6,11-dione] |  | more significant inhibition effect/activity of telomerase | 91.8 ± 3 | 13.6 | -4.43 | 86.2 ± 5.18 | < 50 |  | 
O=C1c2ccccc2C(=O)c2c1ccc1nc(CNCc3cccc(C(F)(F)F)c3)[nH]c21 [CL13, 2-((3-(trifluoromethyl)benzylamino)methyl)-1H-anthra[1,2-d]imidazole-6,11-dione] |  |  | 87.1 ± 2.04 | 89.5 | 4.27 | 114 ± 3.31 | 110 | > 40 | 32.26 ± 2.68
O=C1c2ccccc2C(=O)c2c1ccc1nc(CCN3CCN(c4ccccn4)CC3)[nH]c21 [CL38, 2-(2-(4-(pyridin-2-yl)piperazin-1-yl)ethyl)-1H-anthra[1,2-d]imidazole-6,11-dione] |  |  | 87.6 ± 8.63 | 62.9 | 1.49 | 98 ± 7.72 | 92.8 | > 40 | 57.03 ± 10.76
